This is an account of results in patent publication US20090047246A1, “NOVEL INHIBITORS OF HEPATITIS C VIRUS REPLICATION” (InterMune, Inc., priority 2007, published 2009).

The target in one series is NS3 Helicase (Hepatitis C virus genotype 1b, UniProt P26663). In words: Activity of NS3 Helicase in Presence of Detergent with or without LDAO (Table A). The series is classed as biochemical. The method, then:
In another embodiment, at least one detergent is added to a solution containing NS3 to improve the helicase activity. In some embodiments, the detergent is selected from the group consisting of LDAO, Tween 20, Triton X100, Pluronic F127, CHAPS, β-octyl glucoside, laurylmaltoside, N-lauroylsarcosine, and hexadecyltrimethylammonium bromide. In a preferred embodiment, LDAO is added. In a more preferred embodiment, at least one additional detergent in added to the solution containing NS3 and LDAO. In some embodiments, the additional detergent(s) is/are selected from the group consisting of Tween 20, Triton X100, Pluronic F127, CHAPS, β-octyl glucoside, laurylmaltoside, N-lauroylsarcosine, and hexadecyltrimethylammonium bromide. Table A represents the helicase activity of NS3 in the presence of LDAO and at least one additional detergent; and, in the absence of LDAO and the presence of at least one other detergent.

The next series concerns HCV NS3/4a protease. In words: HCV NS3/4a protease activity, effect of additives on reaction rate (Assay Example 1). Format: biochemical, HCV genotype 1b-K2040. The conditions noted are these: base buffer 50 mM Tris-HCl pH 7.5, 15% glycerol; for Conclusion (effect of additive on NS3/4a protease reaction rate): 0.5 μM FRET substrate, additive at the concentrations tested. The method, then:
In order to identify reaction conditions that give high levels of HCV NS3/4a protease activity, several additives were analyzed to determine their effect on reaction rate. The base buffer used was 50 mM Tris-HCl, pH 7.5 containing 15% glycerol. The FRET-based assay substrate used (sequence: Ac-DE-Dap(QXL520)-EE-Abu-ψ-[COO]-AS-Cys(5-FAMsp)-NH2) was obtained from Anaspec, Inc. (San Jose, Calif.). The NS4a surrogate peptide used (KGSVVIVGRIILSGRK) was obtained from Midwest Biotech (Fishers, Ind.). The NS3 enzyme used was the benchmark wild-type full length enzyme derived from HCV genotype 1b-K2040. The reaction rate for the NS3 catalyzed hydrolysis of 0.5 μM substrate in base buffer was used as a reference.

A further series concerns T1, NS4a surrogate peptide.
T1 sequence: KGSVVIVGRIILSGRK

The mark [1] stands for this setting: plus LDAO 0.6 mM, detergent 0.020%.
Where [2] appears, read: plus LDAO 0.6 mM, detergent 0.020%, control = 100.
Where [3] appears, read: plus LDAO 0.6 mM, detergent 0.075%.
Setting [4] is: plus LDAO 0.6 mM, detergent 0.075%, control = 100.

Sequence of NS3 Helicase (P26663 1027-1657): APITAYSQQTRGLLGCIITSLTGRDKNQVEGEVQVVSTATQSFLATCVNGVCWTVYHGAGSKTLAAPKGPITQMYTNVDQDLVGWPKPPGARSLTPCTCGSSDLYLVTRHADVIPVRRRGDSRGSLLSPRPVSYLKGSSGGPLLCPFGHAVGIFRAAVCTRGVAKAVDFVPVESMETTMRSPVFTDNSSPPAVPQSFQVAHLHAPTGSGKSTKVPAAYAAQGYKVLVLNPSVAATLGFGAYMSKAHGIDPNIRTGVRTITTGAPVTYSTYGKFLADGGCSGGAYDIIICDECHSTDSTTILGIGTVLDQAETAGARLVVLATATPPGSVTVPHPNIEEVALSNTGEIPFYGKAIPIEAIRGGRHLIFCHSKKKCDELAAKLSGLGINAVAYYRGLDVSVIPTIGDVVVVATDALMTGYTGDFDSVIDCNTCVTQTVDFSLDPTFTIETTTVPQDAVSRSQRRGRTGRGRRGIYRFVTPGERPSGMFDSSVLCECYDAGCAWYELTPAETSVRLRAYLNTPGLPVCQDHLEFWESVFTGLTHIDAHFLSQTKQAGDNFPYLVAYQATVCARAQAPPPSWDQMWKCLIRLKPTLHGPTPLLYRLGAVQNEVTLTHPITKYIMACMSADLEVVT

On to `C[C@H](CCC(=O)NCCC[N+](C)(C)CCCS(=O)(=O)[O-])[C@H]1CC[C@H]2[C@@H]3[C@H](O)C[C@@H]4C[C@H](O)CC[C@]4(C)[C@H]3C[C@H](O)[C@]12C` [CHAPS], for which the values for the Slope at NS3 Helicase (setting [1]) and on NS3 Helicase (setting [3]) were −0.77 mP/min and −1.16 mP/min, respectively. The Activity was found to be 126% at NS3 Helicase (setting [2]) and 190% on NS3 Helicase (setting [4]). The “Conclusion (effect of additive on NS3/4a protease reaction rate)” value (from here on “Conclusion”) in the series with HCV NS3/4a protease is “CHAPS at 2 mM increased activity”.
With `O[C@@H](CS)[C@@H](O)CS` [DTT], the “Conclusion” value with HCV NS3/4a protease is 10 and 30 mM DTT improve activity.
For the compound `CCCCCCCCCCCC[N+](C)(C)[O-]` [LDAO, lauryl (dimethyl)-amine oxide], the “Conclusion” value in the series with HCV NS3/4a protease is recorded as “LDAO at 0.6 mM raised activity”. For the same compound, in the series on HCV NS3/4a protease (LDAO at 0.6 mM), the “Increase of NS3/4a protease activity” value was “significantly (~10-fold)”.
On to `[Cl-].[Na+]` [NaCl], for which the “Conclusion” value in the series with HCV NS3/4a protease was “NaCl detrimental to activity”.
The same measure, in the same setting: then `O=C(O)CCP(CCC(=O)O)CCC(=O)O` [TCEP], with “detrimental to activity”; and “KGSVVIVGRIILSGRK [NS4a peptide, "The NS4a surrogate peptide used (…) was obtained from Midwest Biotech", reference compound]”, with “Best activity at 25 and 2500 μM”.
Consider “NS3 enzyme, benchmark wild-type full length enzyme derived from HCV genotype 1b-K2040”, for which the “NS3/4a protease activity (reaction rate of NS3 catalyzed hydrolysis of 0.5 µM FRET substrate)” value in the series with NS4a surrogate peptide was “Best activity at 25 and 2500 µM”.
Take Pluronic F127: the Activity on NS3 Helicase (no LDAO, detergent 0.020%) stood at 126%; on NS3 Helicase (no LDAO, detergent 0.075%), 155%; on NS3 Helicase (setting [2]) it was 300%; at NS3 Helicase (setting [4]), 339%. Moreover, the Slope on NS3 Helicase (no LDAO, detergent 0.020%) is −0.48 mP/min; at NS3 Helicase (no LDAO, detergent 0.075%), −0.59 mP/min; at NS3 Helicase (setting [1]), −1.14 mP/min; on NS3 Helicase (setting [3]), −1.29 mP/min.
Take Triton X100: the Activity is 66% on NS3 Helicase (no LDAO, detergent 0.020%); 53% on NS3 Helicase (no LDAO, detergent 0.075%); 397% at NS3 Helicase (setting [2]); 313% at NS3 Helicase (setting [4]). The Slope on NS3 Helicase (no LDAO, detergent 0.020%) is −0.25 mP/min; at NS3 Helicase (no LDAO, detergent 0.075%) it was −0.2 mP/min; on NS3 Helicase (setting [1]), −1.51 mP/min; on NS3 Helicase (setting [3]) it was −1.19 mP/min.
On to Triton X-100, for which, in the series with HCV NS3/4a protease, the “Conclusion” value was “Improvement in activity at 12 μM”.
